Measured values as given in patent US20120046292A1, “[…] COMPOUND” (ASTELLAS PHARMA INC., priority 2009, published 2012).

Tests used:
human DGAT1 (hDGAT1) = biological target: T1, human DGAT1 (hDGAT1) (Homo sapiens, UniProt O75907); assay: DGAT1 inhibitory activity test (hDGAT1-expressing Sf9 cell microsome, [14C]oleoyl-CoA, FlashPlate); type: biochemical; settings: test substance 1, 10, 100, 1000 nM, linear regression
T1 construct: made in house; host or cells: Sf9 insect cells (Bac-to-Bac baculovirus, pFastBac1); microsomal fraction
T1 sequence (O75907 1-488): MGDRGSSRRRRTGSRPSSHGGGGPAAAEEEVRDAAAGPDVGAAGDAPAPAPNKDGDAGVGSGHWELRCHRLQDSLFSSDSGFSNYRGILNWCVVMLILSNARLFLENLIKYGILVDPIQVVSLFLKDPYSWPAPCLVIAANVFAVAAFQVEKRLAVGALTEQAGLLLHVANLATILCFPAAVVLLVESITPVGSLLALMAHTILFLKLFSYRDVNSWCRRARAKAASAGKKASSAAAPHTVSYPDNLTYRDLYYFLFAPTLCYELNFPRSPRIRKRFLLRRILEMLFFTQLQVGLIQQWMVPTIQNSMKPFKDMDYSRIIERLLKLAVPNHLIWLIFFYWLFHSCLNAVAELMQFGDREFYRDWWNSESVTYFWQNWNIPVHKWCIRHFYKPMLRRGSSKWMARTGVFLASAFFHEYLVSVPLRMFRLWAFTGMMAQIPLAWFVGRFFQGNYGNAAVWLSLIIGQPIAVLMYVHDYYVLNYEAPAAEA
Experimental: (1) Production of Bacmid-hDGAT1
A base sequence encoding a human DGAT1 (hDGAT1) (1467 bases of CDS in Genbank Accession No. NM_012079) was cloned and ligated to pFastBac™1 (Invitrogen) to produce a pFastBac1-hDGAT1. From this plasmid, an engineered baculovirus liquid (Bacmid-hDGAT1) was prepared using a Bac-to-Bac (registered trademark) Baculovirus Expression System (Invitrogen).
(2) Preparation of Sf9 Cell-Derived DGAT1-Expressing Microsomal Fraction
Sf9 cells were seeded into a 225-cm^2 Flask Angled Neck (CORNING) to a confluency of 80%, and statically cultured in an incubator at 27° C. using an EX-CELL™ 420 INSECT SERUM-FREE MEDIUM (SAFC Biosciences, Inc.). After 24 hours, the culture medium was taken out, and a liquid obtained by diluting 1.67 mL of an engineered baculovirus medium (Bacmid-hDGAT1) with 3.33 mL of an EX-CELL™ 420 INSECT SERUM-FREE MEDIUM was added thereto, and the resultant was cultured under shaking in an incubator at 27° C. for 1 hour. Thereafter, 25 mL of an EX-CELL™ 420 INSECT SERUM-FREE MEDIUM was added thereto, followed by culturing in an incubator at 27° C. for 72 hours. The infected cells were harvested, diluted with 1.5 mL of a buffer A (40 mM phosphate buffer (pH 7.2) including 100 mM sucrose and 50 mM KCl) containing a Complete Protease Inhibitor Cocktail (Roche Diagnostics K. K.), and then subjected to sonication using a SONIFER 250 (BRANSON Ultrasonic Corp.). This suspension was centrifuged at 10000×g for 5 minutes and the supernatant was recovered. This supernatant was centrifuged at 100000×g for 60 minutes and the resulting precipitate was dissolved in 600 μL of a buffer A and then subjected to sonication again, to prepare a suspension. This suspension was taken as a hDGAT1-expressing Sf9 cell microsome.
(3) DGAT1 Activity Measurement
For the DGAT1 activity, a test substance in DMSO (final DMSO concentration 2%) in which 100 mM Tris-HCl (pH 8.0), 2 mM MgCl2, 0.01% BSA, a hDGAT1-expressing Sf9 cell microsome, 200 μM dioleoyl glycerol or dipalmitoyl glycerol, 8.9 μM [^14C] oleoyl-CoA, and 1.68% acetone were added to a phospholipid FlashPlate (PerkinElmer Life Science). The reaction was carried out at 30° C. for 60 minutes, and then twice the amount (100 μL), relative to the reaction liquid, of a mixture of isopropyl alcohol:0.1 M carbonate buffer (pH 9.0) at a ratio of 1:1 was added thereto to stop the reaction. The next day, the count was measured with a TopCount microplate scintillation counter (PerkinElmer Life Science).
The count without addition of the test substance was taken as a control (TG with addition of DMSO). The count without addition of the test substance and the microsome was taken as a Blank TG. The DGAT1 inhibitory rate of the test substance was calculated by the following calculation equation:
Inhibitory Rate (%)=(TG with addition of test substance−Blank TG)÷(TG with addition of DMSO−Blank TG)×100
The DGAT1 inhibitory rates were calculated when the concentrations of the test substance in the reaction liquid were 1, 10, 100, and 1000 nM. Linear regression was performed using the inhibitory rates obtained, and a test substance concentration (IC50) required to inhibit the DGAT1 activity by 50% was calculated by an SAS 8.2 software package (SAS Institute Japan, Ltd., Tokyo, Japan).

male C57BL/6J mice = assay: Inhibitory action on increase in triglyceride (TG) by fat administration; type: in vivo; settings: administration amount 0.3 mg/kg; fat (intralipid 20%, 10 mL/kg) orally 20 hours after dosing; plasma TG 2 hours after fat; control 0.5% methyl cellulose group
Experimental: 8- to 15-week male C57BL/6J mice were fasted for four hours, and the test substances were administered to the mice. The test substance was administered after suspending it in a 0.5% methyl cellulose solution. After 20 hours, fat (intralipid 20%, Terumo (Fresenius), 10 mL/kg) was orally administered thereto. Immediately before and after 2 hours from administration of the fat, blood was collected from the tail vein to obtain plasma. For measurement of the TG in plasma, a TG increase in the plasma by fat administration was calculated using a Triglyceride E Test Wako (Wako Pure Chemical Industries Ltd.). Using the TG increase in the plasma in a group to which 0.5% methyl cellulose had been administered as a control, the TG increase inhibitory rate when the test substance had been administered was determined.

DIO mice = assay: Anti-obesity action in DIO mice; type: in vivo; settings: oral, once per day, administration period 2 weeks, 1 mg/kg; high-fat diet C57BL/6J mice; solvent group weight increase = 100%
Experimental: High-fat diet formula (Research Diet D12492, 60 kcal % fat) were given to 9-week male C57BL/6J mice. For acclimatization of the mice, the solvent used in the test from the 4th week was administered thereto. From the 5th week, the test substance was orally administered once or twice daily. The test substance was administered after suspending it in a 0.5% methyl cellulose solution. Administration was performed repeatedly for 2 or 4 weeks, and variation in the weights due to the test substance administration was observed. By taking the increase in the weight in the group to which the solvent had been administered within a test period as 100%, the weight increase inhibitory rate of the test substance was calculated.

Structure (SMILES) | IC50 (human DGAT1 (hDGAT1)) [nM] | TG increase inhibitory rate (male C57BL/6J mice) [%] | weight increase inhibitory rate (DIO mice) [%]
O=C(NCCNC(=O)N1CCC(c2ccc(Cl)cc2)CC1)c1ccc(O[C@H]2CC[C@@H](C(=O)O)CC2)c(F)c1F [Example 480] | 5.2 |  | 
O=C(O)C[C@H]1CC[C@@H](Oc2cc(F)c(C(=O)NCCNC(=O)c3ccc4ccccc4c3)cc2F)CC1 [Example 571] | 1.6 |  | 
O=C(NCCNC(=O)c1ccc(O[C@H]2CC[C@@H](C(=O)O)CC2)cc1F)c1ccc2ccccc2c1 [Example 169] | 2.7 | 75 | 
O=C(O)CC1CCC(c2ccc(C(=O)NCCNC(=O)c3ccc(Cl)cc3)cc2)CC1 (stereo not drawn) [Example 6, {4-[4-({2-[(4-chlorobenzoyl)amino]ethyl}carbamoyl)phenyl]cyclohexyl}acetic acid] | 20 |  | 
O=C(NCCNC(=O)c1ccc(O[C@H]2CC[C@@H](C(=O)O)CC2)cc1)Nc1ccccc1Cl [Example 56] | 14 |  | 
O=C(NCCNC(=O)c1ccc(O[C@H]2CC[C@@H](C(=O)O)CC2)cc1)c1ccc(Oc2ccc(F)cc2)cc1 [Example 63] | 0.4 |  | 
O=C(NCCNC(=O)c1ccc2ccccc2c1)c1ccc(O[C@H]2CC[C@@H](C(=O)O)CC2)cc1 [Example 83] | 5.2 |  | 
O=C(NCCNC(=O)c1ccc(O[C@H]2CC[C@@H](C(=O)O)CC2)cc1F)c1cc2cc(F)ccc2s1 [Example 531] | 0.1 |  | 
O=C(O)CC1CCN(c2c(F)cc(C(=O)NCCNC(=O)c3sc4ccccc4c3Cl)cc2F)CC1 [Example 604] | 32 |  | 
CCCCCC12CCC(C(=O)NCCNC(=O)c3ccc(O[C@H]4CC[C@@H](C(=O)O)CC4)cc3)(CC1)CC2 [Example 20] | 2.1 |  | 
O=C(NCCNC(=O)c1ccc(C2CC2)c(Cl)c1)c1ccc(O[C@H]2CC[C@@H](C(=O)O)CC2)c(F)c1 [Example 135] | 5.8 |  | 
O=C(NCCNC(=O)c1ccc(F)c(C(F)(F)F)c1)c1ccc(O[C@H]2CC[C@@H](C(=O)O)CC2)cc1 [Example 82] | 9.9 |  | 
O=C(NCCNC(=O)c1ccc(O[C@H]2CC[C@@H](C(=O)O)CC2)c(F)c1F)c1ccc2ccccc2c1 [Example 300] | 5.6 |  | 
O=C(NCCNC(=O)c1cc(F)c(O[C@H]2CC[C@@H](C(=O)O)CC2)cc1F)c1ccc2ccccc2c1 [Example 454] | 1 | 106 | 93
O=C(NCCNC(=O)c1ccc(C2CC2)cc1)c1ccc(O[C@H]2CC[C@@H](C(=O)O)CC2)cc1 [Example 79] | 2.3 | 79 | 
O=C(NCCNC(=O)c1c(F)cc(O[C@H]2CC[C@@H](C(=O)O)CC2)cc1F)c1ccc2ccccc2c1 [Example 299] | 6.7 |  | 
Cc1cc(O[C@H]2CC[C@@H](C(=O)O)CC2)ccc1C(=O)NCCNC(=O)c1ccc(C(F)(F)F)cc1 [Example 187] | 8.1 |  | 
O=C(NCCNC(=O)c1ccc(O[C@H]2CC[C@@H](C(=O)O)CC2)c(F)c1F)c1ccc(Cl)s1 [Example 490] | 3.8 | 92 | 98
CCOc1ccc(C(=O)NCCNC(=O)c2ccc(O[C@H]3CC[C@@H](C(=O)O)CC3)nc2)cc1Cl [Example 245] | 14 |  | 
Cc1cc(C(=O)NCCNC(=O)c2ccc(O[C@H]3CC[C@@H](C(=O)O)CC3)cc2)ccc1Cl [Example 106] | 5.3 |  | 
O=C(NCCNC(=O)c1sc2ccccc2c1Cl)c1ccc(O[C@H]2CC[C@@H](C(=O)O)CC2)cc1 [Example 469] | 1.7 | 109 | 
CCOc1ccc(C(=O)NCCNC(=O)c2ccc(O[C@H]3CC[C@@H](C(=O)O)CC3)cc2)cc1 [Example 18] | 21 |  | 
O=C(NCCNC(=O)c1cc2cc(OC(F)(F)F)ccc2[nH]1)c1ccc(O[C@H]2CC[C@@H](C(=O)O)CC2)cc1 [Example 148] | 4.2 |  | 
